In US20250277012A1 (Protagonist Therapeutics, Inc., priority 2021, published 2025) one finds DC50 data, which are given here for 12 compounds.

Each structure is given as a SMILES string. Where two headings read alike, the source gives them in different places. Starred links: 1 amine or outer side, 2 acyl side, 3 side chain; linkers in the order of their positions; H or OH if unused. Positions of bridges follow the written chain, without caps; N, C: chain ends. Non-standard residues stand in square brackets, D forms with d. Residues, ends and D or L forms follow the SMILES beside them. Groups on a side chain read outwards from the residue. *: point of attachment. Glutaryl(2-isohexyl,5-OMe) = COC(=O)CCC(CCCC(C)C)C(=O)*; C18 diacid = O=C(O)CCCCCCCCCCCCCCCCC(=O)*; Dip = N[C@H](C(=O)O)C(c1ccccc1)c1ccccc1; γGlu = O=C(O)[C@H](CCC(=O)[*:2])N[*:1]; Palmitoyl = CCCCCCCCCCCCCCCC(=O)*; β3hF = N[C@H](CC(=O)O)Cc1ccccc1; NMeK = CN[C@@H](CCCCN)C(=O)O; Pen = CC(C)(S)[C@H](N)C(=O)O; dNMeK = CN[C@H](CCCCN)C(=O)O; Isovaleryl = CC(C)CC(=O)*; NMeC = CN[C@@H](CS)C(=O)O; hCys = N[C@@H](CCS)C(=O)O; Dap = NC[C@H](N)C(=O)O; AEEA = NCCOCCOCC(=O)O; Ahx = NCCCCCC(=O)O Some results are limits rather than exact numbers.

This assay has as its target T1, ferroportin (Homo sapiens, UniProt Q9NP59).
T1 sequence (Q9NP59 1-571): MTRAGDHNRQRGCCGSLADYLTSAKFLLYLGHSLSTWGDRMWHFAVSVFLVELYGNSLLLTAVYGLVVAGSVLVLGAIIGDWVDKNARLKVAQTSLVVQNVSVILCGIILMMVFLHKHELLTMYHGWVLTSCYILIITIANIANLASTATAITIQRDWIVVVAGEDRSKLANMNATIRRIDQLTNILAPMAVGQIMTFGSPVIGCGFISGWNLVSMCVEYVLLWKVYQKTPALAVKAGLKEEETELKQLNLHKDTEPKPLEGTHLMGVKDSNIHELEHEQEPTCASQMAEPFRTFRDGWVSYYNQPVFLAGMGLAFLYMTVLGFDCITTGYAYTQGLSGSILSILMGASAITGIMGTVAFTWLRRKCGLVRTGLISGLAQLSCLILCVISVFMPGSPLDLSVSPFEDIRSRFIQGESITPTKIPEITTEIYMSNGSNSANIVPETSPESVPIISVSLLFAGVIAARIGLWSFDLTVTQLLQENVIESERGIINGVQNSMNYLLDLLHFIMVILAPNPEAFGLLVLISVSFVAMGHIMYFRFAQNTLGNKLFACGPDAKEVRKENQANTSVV
Nature of the assay: FPN activity assay: ferroportin-GFP internalization/degradation in HEK293 cells. Type of assay: cell-based. Also on record: expressed in transfected cells. To be noted: read-out: FPN IC50. On the procedure: Following internalization, the ferroporin protein is degraded.
A retro inverse peptide is a peptide with a reversed sequence in all D amino acids. An example is that Hy-Glu-Thr-His-NH2 becomes Hy-DHis-DThr-DGlu-NH2. The EC50 of these reference compounds for ferroportin internalization/degradation was determined according to the FPN activity assay described above. These peptides served as control standards.

Setting [1] is: ferroportin-GFP internalization/degradation, HEK293 cells, Table 6E.
The mark [2] stands for this setting: ferroportin-GFP HEK293 cells, at least 18 hours.

`CC(C)CC(=O)N[C@@H](CCC(=O)O)C(=O)N[C@H](C(=O)N[C@@H](Cc1c[nH]cn1)C(=O)N[C@H](C(=O)N1CCC[C@H]1C(=O)N[C@H]1CSSC[C@@H](C(=O)N(C)[C@@H](CCCCNC(=O)COCCOCCNC(=O)COCCOCCNC(=O)[C@H](CN)NC(=O)CCCCCCCCCCCCCCCCC(=O)O)C(=O)N[C@H](CC(=O)N[C@H](CCCCN)C(N)=O)Cc2ccccc2)N(C)C1=O)C(c1ccccc1)c1ccccc1)[C@@H](C)O` [compound 278] (Isovaleryl-ETH[Dip]PC[NMeC][NMeK]([AEEA-AEEA-Dap-C18 diacid])[β3hF][dK]-NH2; disulfide 6-7): the DC50 under setting [1] was in the range of 10 to 100 nM.

Turning to `CC(C)CC(=O)N[C@@H](CCC(=O)O)C(=O)N[C@H](C(=O)N[C@@H](Cc1c[nH]cn1)C(=O)N[C@H](C(=O)N1CCC[C@H]1C(=O)N[C@H]1CSSC[C@@H](C(=O)N(C)[C@@H](CCCCNC(=O)COCCOCCNC(=O)COCCOCCNC(=O)[C@H](CN)NC(=O)CCCCCCCCCCCCCCCCC(=O)O)C(=O)N[C@H](CC(=O)N(C)[C@H](CCCCN)C(N)=O)Cc2ccccc2)NC1=O)C(c1ccccc1)c1ccccc1)[C@@H](C)O` [compound 276] (Isovaleryl-ETH[Dip]PCC[NMeK]([AEEA-AEEA-Dap-C18 diacid])[β3hF][dNMeK]-NH2; disulfide 6-7), the DC50 under setting [1] was in the range of 10 to 100 nM.

For the compound `CC(C)CC(=O)N[C@@H](CCC(=O)O)C(=O)N[C@H](C(=O)N[C@@H](Cc1c[nH]cn1)C(=O)N[C@H](C(=O)N1CCC[C@H]1C(=O)N[C@H]1CSSC[C@@H](C(=O)N[C@H](CCCCN)C(=O)N[C@H](CC(=O)N[C@@H](CCCCNC(=O)COCCOCCNC(=O)COCCOCCNC(=O)CC[C@H](NC(=O)CCCCCCCCCCCCCCCCC(=O)O)C(=O)O)C(=O)N[C@H](CCCCN)C(N)=O)Cc2ccccc2)NC1=O)C(c1ccccc1)c1ccccc1)[C@@H](C)O` [Compd 28] (Isovaleryl-ETH[Dip]PCC[dK][β3hF]K([AEEA-AEEA-γGlu-C18 diacid])[dK]-NH2; disulfide 6-7), under setting [2], the DC50 lay in the range of 100 to 500 nM.

On to `CC[C@H](C)[C@H](NC(=O)[C@@H]1CSSC[C@H](NC(=O)[C@H](Cc2c[nH]cn2)NC(=O)[C@@H](NC(=O)[C@H](CCC(=O)O)NC(=O)CC(C)C)[C@@H](C)O)C(=O)N2CCC[C@H]2C(=O)N1)C(=O)N[C@H](CCCCN)C(=O)N[C@H](CC(=O)N[C@@H](CCCCNC(=O)COCCOCCNC(=O)COCCOCCNC(=O)CC[C@H](NC(=O)CCCCCCCCCCCCCCCCC(=O)O)C(=O)O)C(=O)N[C@H](CCCCN)C(N)=O)Cc1ccccc1` [Compd 33] (Isovaleryl-ETHCPCI[dK][β3hF]K([AEEA-AEEA-γGlu-C18 diacid])[dK]-NH2; disulfide 4-6), for which the DC50 under setting [2] is greater than 500 nM.

As for `CCCCCCCCCCCCCCCC(=O)NCCCCCC(=O)NCCCC[C@H](NC(=O)[C@@H](NC(=O)[C@@H]1CCSSCC[C@H](NC(=O)CC(C)C)C(=O)N[C@@H](CCC(=O)O)C(=O)N[C@@H]([C@@H](C)O)C(=O)N[C@@H](Cc2c[nH]cn2)C(=O)N[C@@H](C(c2ccccc2)c2ccccc2)C(=O)N2CCC[C@H]2C(=O)N1)[C@@H](C)CC)C(=O)N[C@H](CC(N)=O)Cc1ccccc1` [Compd 15] (Isovaleryl-[hCys]ETH[Dip]P[hCys]IK([Ahx-Palmitoyl])[β3hF]-NH2; disulfide 1-7), the DC50 under setting [2] is greater than 500 nM.

For `CCCCCCCCCCCCCCCC(=O)NCCCCCC(=O)NCCCC[C@H](NC(=O)C[C@H](Cc1ccccc1)NC(=O)[C@@H]1CSSC[C@H](NC(=O)[C@@H]2CCCN2C(=O)[C@@H](NC(=O)[C@H](Cc2c[nH]cn2)NC(=O)[C@@H](NC(=O)[C@H](CCC(=O)O)NC(=O)CC(C)C)[C@@H](C)O)C(c2ccccc2)c2ccccc2)C(=O)N[C@@H]([C@@H](C)CC)C(=O)N1)C(=O)N[C@H](CCCCN)C(N)=O` [Compd 7] (Isovaleryl-ETH[Dip]PCIC[β3hF]K([Ahx-Palmitoyl])[dK]-NH2; disulfide 6-8), the DC50 under setting [2] fell in the range of 10 to 100 nM.

On to `CC(C)CC(=O)N[C@@H](CCC(=O)O)C(=O)N[C@H](C(=O)N[C@@H](Cc1c[nH]cn1)C(=O)N[C@H](C(=O)N1CCC[C@H]1C(=O)N[C@@H]1C(=O)N[C@H](C(=O)N(C)[C@@H](CCCCNC(=O)COCCOCCNC(=O)COCCOCCNC(=O)[C@H](CN)NC(=O)CCCCCCCCCCCCCCCCC(=O)O)C(=O)N[C@H](CC(=O)N[C@H](CCCCN)C(N)=O)Cc2ccccc2)CSSC1(C)C)C(c1ccccc1)c1ccccc1)[C@@H](C)O` [compound 271] (Isovaleryl-ETH[Dip]P[Pen]C[NMeK]([AEEA-AEEA-Dap-C18 diacid])[β3hF][dK]-NH2; disulfide 6-7), for which the DC50 under setting [1] was 10 to 100 nM.

Take `CCCCCCCCCCCCCCCC(=O)NCCCCCC(=O)NCCCC[C@H](NC(=O)C[C@H](Cc1ccccc1)NC(=O)[C@@H]1CCSSC[C@H](NC(=O)CC(C)C)C(=O)N[C@@H]([C@@H](C)O)C(=O)N[C@@H](Cc2c[nH]cn2)C(=O)N[C@@H](C(c2ccccc2)c2ccccc2)C(=O)N2CCC[C@H]2C(=O)N[C@@H](C)C(=O)N[C@@H]([C@@H](C)CC)C(=O)N1)C(=O)N[C@H](CCCCN)C(N)=O` [compound 108] (Isovaleryl-CTH[Dip]PAI[hCys][β3hF]K([Ahx-Palmitoyl])[dK]-NH2; disulfide 1-8): the DC50 under setting [2] lay within 10 to 100 nM.

For the compound `CC(C)CC(=O)N[C@@H](CCC(=O)O)C(=O)N[C@H](C(=O)N[C@@H](Cc1c[nH]cn1)C(=O)N[C@H](C(=O)N1CCC[C@H]1C(=O)N[C@@H]1C(=O)N[C@H](C(=O)N(C)[C@@H](CCCCNC(=O)COCCOCCNC(=O)COCCOCCNC(=O)[C@H](CN)NC(=O)CCCCCCCCCCCCCCCCC(=O)O)C(=O)N[C@H](CC(=O)N[C@H](CCCCN)C(N)=O)Cc2ccccc2)C(C)(C)SSC1(C)C)C(c1ccccc1)c1ccccc1)[C@@H](C)O` [compound 273] (Isovaleryl-ETH[Dip]P[Pen][Pen][NMeK]([AEEA-AEEA-Dap-C18 diacid])[β3hF][dK]-NH2; disulfide 6-7), the DC50 under setting [1] was in the range of 100 to 500 nM.

Take `CCCCCCCCCCCCCCCC(=O)NCCCCCC(=O)NCCCC[C@H](NC(=O)C[C@H](Cc1ccccc1)NC(=O)[C@H]1NC(=O)[C@H]([C@@H](C)CC)NC(=O)[C@H](C)NC(=O)[C@@H]2CCCN2C(=O)[C@H](C(c2ccccc2)c2ccccc2)NC(=O)[C@H](Cc2c[nH]cn2)NC(=O)[C@H]([C@@H](C)O)NC(=O)[C@@H](NC(=O)CC(C)C)CCSSC1(C)C)C(=O)N[C@H](CCCCN)C(N)=O` [compound 109] (Isovaleryl-[hCys]TH[Dip]PAI[Pen][β3hF]K([Ahx-Palmitoyl])[dK]-NH2; disulfide 1-8): the DC50 under setting [2] was in the range of 10 to 100 nM.

As for `CCCCCCCCCCCCCCCC(=O)NCCCCCC(=O)NCCCC[C@H](NC(=O)C[C@H](Cc1ccccc1)NC(=O)[C@@H](CCCCN)NC(=O)[C@@H](NC(=O)[C@@H]1CSSC[C@H](NC(=O)[C@H](CCC(=O)O)NC(=O)CC(C)C)C(=O)N[C@@H](Cc2c[nH]cn2)C(=O)N[C@@H](C(c2ccccc2)c2ccccc2)C(=O)N2CCC[C@H]2C(=O)N1)[C@@H](C)CC)C(=O)N[C@H](CCCCN)C(N)=O` [compound 134] (Isovaleryl-ECH[Dip]PCI[dK][β3hF]K([Ahx-Palmitoyl])[dK]-NH2; disulfide 2-6), the DC50 (Table 6D, ferroportin-GFP internalization/degradation, at least 18 hours incubation) fell in the range of 10 to 100 nM.

`COC(=O)CCC(CCCC(C)C)C(=O)N[C@H](C(=O)N[C@@H](Cc1c[nH]cn1)C(=O)N[C@H](C(=O)N1CCC[C@H]1C(=O)N[C@H]1CSSC[C@@H](C(=O)N[C@H](CCCCN)C(=O)N[C@H](C(=O)N[C@H](CCCCN)C(N)=O)C(c2ccccc2)c2ccccc2)NC1=O)C(c1ccccc1)c1ccccc1)[C@@H](C)O` (stereo partly drawn) [compound 135] ({Glutaryl(2-isohexyl,5-OMe)}-TH[Dip]PCC[dK][Dip][dK]-NH2; disulfide 5-6): under “Table 6E, ferroportin-GFP internalization/degradation, at least 18 hours incubation”, the DC50 is 100 to 500 nM.
